What was measured:
[1] = Binding constant for spermine binding to Ribonuclease S (RNA ase) by saturation curve method
[2] = Association constant required to reduce the S-peptide / S-protein association by nonlinear curve fitting analysis; type: ADME

Row | Compound | Log K [1] | Log K [2]
1 | C1CNCCNCCNCCN1 | 3.7 | –
2 | NCCCCNCCCN | 5.4 | –
3 | NCCCNCCCCNCCCN | 5 | –
4 | NCCN(CCN)CCN | 5 | –
5 | NCCNCCNCCN | 5 | –
6 | H-EETAEAKFERQHMDS-OH | – | 6.5
7 | H-KEDAADKFERQHMDS-OH | – | 7.1
8 | H-KEEAAAKFERQHMDS-OH | – | 7.1
9 | H-KEEAAEKFERQHMDS-OH | – | 6.9
10 | H-KETAAAKFERQHMDS-OH | – | 7.6

Source: ChEMBL document CHEMBL1131685, “Design and semisynthesis of spermine-sensitive Ribonuclease S'” (Bioorg Med Chem Lett, 1999)
